From ChEMBL document CHEMBL1146225, “[1,2,3]Triazolo[4,5-h]quinolones. A new class of potent antitubercular agents against multidrug resistant Mycobacterium tuberculosis strains” (Bioorg Med Chem Lett, 2007)
In brackets after ≈: the same amount, converted by molar mass.

Experiments:
Format in all cases: functional
[1] = system: Mycobacterium tuberculosis; experiment: Antitubercular activity against Mycobacterium tuberculosis SS2
[2] = system: Mycobacterium tuberculosis; experiment: Antitubercular activity against Mycobacterium tuberculosis SS11
[3] = system: Mycobacterium tuberculosis; experiment: Antitubercular activity against Mycobacterium tuberculosis SS5
[4] = system: Mycobacterium tuberculosis; experiment: Antitubercular activity against Mycobacterium tuberculosis SS6
[5] = system: Mycobacterium tuberculosis; experiment: Antitubercular activity against Mycobacterium tuberculosis SS8
[6] = system: Mycobacterium tuberculosis; experiment: Antitubercular activity against Mycobacterium tuberculosis SS4
[7] = system: Mycobacterium tuberculosis; experiment: Antitubercular activity against Mycobacterium tuberculosis H37Rv
[8] = system: Mycobacterium tuberculosis; experiment: Antitubercular activity against Mycobacterium tuberculosis SS3
[9] = system: Mycobacterium tuberculosis; experiment: Antitubercular activity against Mycobacterium tuberculosis SS1
[10] = system: Mycobacterium tuberculosis; experiment: Antitubercular activity against Mycobacterium tuberculosis SS10
[11] = system: Mycobacterium tuberculosis; experiment: Antitubercular activity against Mycobacterium tuberculosis SS9
[12] = system: Mycobacterium tuberculosis; experiment: Antitubercular activity against Mycobacterium tuberculosis SS7

| Compound | MIC90 [1] [µg/mL] | MIC90 [2] [µg/mL] | MIC90 [3] [µg/mL] | MIC90 [4] [µg/mL] | MIC90 [5] [µg/mL] | MIC90 [6] [µg/mL] | MIC90 [7] [µg/mL] | MIC90 [8] [µg/mL] | MIC90 [9] [µg/mL] | MIC90 [10] [µg/mL] | MIC90 [11] [µg/mL] | MIC90 [12] [µg/mL] |
| --- | --- | --- | --- | --- | --- | --- | --- | --- | --- | --- | --- | --- |
| CCn1cc(C(=O)O)c(=O)c2ccc3c(nnn3C)c21 | 0.8 (≈ 2.94 µM) | 1.6 (≈ 5.88 µM) | 1.6 (≈ 5.88 µM) | 1.6 (≈ 5.88 µM) | 1.6 (≈ 5.88 µM) | 3.2 (≈ 11.8 µM) | 1.6 (≈ 5.88 µM) | 3.2 (≈ 11.8 µM) | 1.6 (≈ 5.88 µM) | 1.6 (≈ 5.88 µM) | 1.6 (≈ 5.88 µM) | 3.2 (≈ 11.8 µM) |
| CCn1cc(C(=O)O)c(=O)c2ccc3nn(C)nc3c21 | – | – | – | – | – | – | 5 (≈ 18.4 µM) | – | – | – | – | – |
| CCn1cc(C(=O)O)c(=O)c2ccc3c(nnn3CC)c21 | – | – | – | – | – | – | 1.6 (≈ 5.59 µM) | – | – | – | – | – |
| C=CCn1cc(C(=O)OCC)c(=O)c2ccc3c(nnn3C)c21 | > 32 | > 32 | > 32 | > 32 | > 32 | > 32 | > 32 | > 32 | > 32 | > 32 | > 32 | > 32 |
| CCOC(=O)c1cn(Cc2ccccc2)c2c(ccc3c2nnn3C)c1=O | > 32 | > 32 | > 32 | > 32 | > 32 | > 32 | > 32 | > 32 | > 32 | > 32 | > 32 | > 32 |
| Cn1nnc2c3c(ccc21)c(=O)c(C(=O)O)cn3Cc1ccc(Br)cc1 | > 32 | > 32 | > 32 | > 32 | > 32 | > 32 | > 32 | > 32 | > 32 | > 32 | > 32 | > 32 |
| Cn1nnc2c3[nH]cc(C(=O)O)c(=O)c3ccc21 | – | – | – | – | – | – | 4.8 (≈ 19.7 µM) | – | – | – | – | – |
| Cn1nnc2c3c(ccc21)c(=O)c(C(=O)O)cn3Cc1ccccc1 | > 32 | > 32 | > 32 | > 32 | > 32 | > 32 | > 32 | > 32 | > 32 | > 32 | > 32 | > 32 |
| CCCCn1cc(C(=O)O)c(=O)c2ccc3c(nnn3C)c21 | > 32 | > 32 | > 32 | > 32 | > 32 | > 32 | > 32 | > 32 | > 32 | > 32 | > 32 | > 32 |
| CCOC(=O)c1cn(Cc2ccc(C)cc2)c2c(ccc3c2nnn3C)c1=O | > 32 | > 32 | > 32 | > 32 | > 32 | > 32 | > 32 | > 32 | > 32 | > 32 | > 32 | > 32 |
| CO[C@H]1/C=C/O[C@@]2(C)Oc3c(C)c(O)c4c(O)c(c(/C=N/N5CCN(C)CC5)c(O)c4c3C2=O)NC(=O)/C(C)=C\C=C\[C@H](C)[C@H](O)[C@@H](C)[C@@H](O)[C@@H](C)[C@H](OC(C)=O)[C@@H]1C [RIFAMPIN] | > 4 | 0.5 (≈ 0.608 µM) | 0.5 (≈ 0.608 µM) | > 4 | 0.5 (≈ 0.608 µM) | 0.7 (≈ 0.851 µM) | 0.7 (≈ 0.851 µM) | 0.5 (≈ 0.608 µM) | > 4 | 0.8 (≈ 0.972 µM) | 0.5 (≈ 0.608 µM) | 0.8 (≈ 0.972 µM) |
